Calls of active or inactive are those of the source.
Columns and labels:
BJ [1] = assay: cells; format: functional, cell-based; conditions: Homo sapiens
INS1 = assay: INS-1E survival protection against cytokine death – cell-based, luminescence, retest, dose response (AID 449756); format: functional; conditions: Rattus norvegicus;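 note: cell death triggered by IL-1 beta plus TNF-alpha plus IFN-gamma mixture; protective hits raise ATP signal compared with cytokine alone wells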
[2] = fluconazole-exposed Candida albicans growth modulators – fluorescence, retest, confirmation (AID 2467); format: functional, cell-based
BJ [3] = assay: BJ-TERT-LT-ST fibroblast viability loss – cell-based, RAS-independent, luminescence, dose response (AID 1935); format: functional; conditions: Homo sapiens;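 note: BJ fibroblasts immortalized with TERT plus LT and ST oncogenes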
[4] = target: G-protein coupled receptor 55 (Homo sapiens, UniProt Q9Y2T6); assay: blockers of GPR55 signalling, imaged – imaging, image-based, counter-screen for GPR35 antagonist project, SAR follow-up (AID 2397); format: functional
[5] = NIH-3T3 fibroblast cytotoxicity, dose response, cytotoxicity control, cell-based, fluorescence, Alamar Blue, secondary assay (AID 2327); format: functional;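 note: NIH-3T3 mouse fibroblasts cultured with fluconazole at 8 µg/mL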
BJ [6] = assay: BJ-TERT fibroblast viability loss – cell-based, RAS-independent, luminescence, dose response (AID 1933); format: functional; conditions: Homo sapiens
[7] = DRD fibroblast viability loss – cell-based, non-viral oncogenic, luminescence, dose response (AID 1934); format: functional; conditions: Homo sapiens
[8] = target: T1, Tyrosine-protein phosphatase non-receptor type 7 (Homo sapiens, UniProt P35236); format: functional
T1 sequence (P35236 whole entry): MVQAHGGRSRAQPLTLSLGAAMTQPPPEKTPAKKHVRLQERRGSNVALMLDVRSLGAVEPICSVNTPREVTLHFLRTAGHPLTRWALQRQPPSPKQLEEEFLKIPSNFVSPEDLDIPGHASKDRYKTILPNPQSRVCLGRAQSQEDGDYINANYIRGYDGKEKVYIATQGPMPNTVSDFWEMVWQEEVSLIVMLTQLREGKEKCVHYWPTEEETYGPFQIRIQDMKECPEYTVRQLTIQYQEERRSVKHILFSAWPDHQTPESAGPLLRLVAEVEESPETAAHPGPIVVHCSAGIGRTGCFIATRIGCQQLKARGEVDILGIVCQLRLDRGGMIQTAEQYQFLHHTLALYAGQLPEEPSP

[9] = target: T2, Tyrosine-protein phosphatase non-receptor type 22 (Homo sapiens, UniProt Q9Y2R2); format: functional
T2 sequence (Q9Y2R2 whole entry): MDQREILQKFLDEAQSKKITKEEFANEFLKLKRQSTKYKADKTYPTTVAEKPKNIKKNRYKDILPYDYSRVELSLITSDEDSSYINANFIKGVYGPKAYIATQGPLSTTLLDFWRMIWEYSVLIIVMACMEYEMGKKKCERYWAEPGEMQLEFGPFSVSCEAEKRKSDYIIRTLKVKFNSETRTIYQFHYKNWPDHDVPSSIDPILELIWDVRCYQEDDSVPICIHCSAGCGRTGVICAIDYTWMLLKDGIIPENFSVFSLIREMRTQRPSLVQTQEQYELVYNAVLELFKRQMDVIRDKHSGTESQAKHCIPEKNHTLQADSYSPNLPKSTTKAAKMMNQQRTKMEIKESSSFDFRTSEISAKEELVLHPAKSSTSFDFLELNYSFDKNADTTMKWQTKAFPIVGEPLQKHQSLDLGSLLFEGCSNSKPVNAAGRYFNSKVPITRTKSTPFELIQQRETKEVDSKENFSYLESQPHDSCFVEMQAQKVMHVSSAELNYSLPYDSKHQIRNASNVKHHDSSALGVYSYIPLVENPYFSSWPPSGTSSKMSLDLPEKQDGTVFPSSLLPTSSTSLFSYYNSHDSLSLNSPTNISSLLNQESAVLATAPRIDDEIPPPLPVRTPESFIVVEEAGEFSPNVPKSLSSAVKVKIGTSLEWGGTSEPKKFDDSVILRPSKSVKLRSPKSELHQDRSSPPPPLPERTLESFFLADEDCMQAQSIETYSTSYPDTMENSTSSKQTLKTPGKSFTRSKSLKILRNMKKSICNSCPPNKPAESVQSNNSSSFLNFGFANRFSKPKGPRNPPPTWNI

[10] = target: T2, Tyrosine-protein phosphatase non-receptor type 22; format: functional; remark: listed apart in the source
Cytochrome P450 1A2 = target: T3, Cytochrome P450 1A2 (Homo sapiens, UniProt P05177);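 note: PubChem cytochrome P450 panel assay, CYP1A2 panel member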
T3 sequence (P05177 whole entry): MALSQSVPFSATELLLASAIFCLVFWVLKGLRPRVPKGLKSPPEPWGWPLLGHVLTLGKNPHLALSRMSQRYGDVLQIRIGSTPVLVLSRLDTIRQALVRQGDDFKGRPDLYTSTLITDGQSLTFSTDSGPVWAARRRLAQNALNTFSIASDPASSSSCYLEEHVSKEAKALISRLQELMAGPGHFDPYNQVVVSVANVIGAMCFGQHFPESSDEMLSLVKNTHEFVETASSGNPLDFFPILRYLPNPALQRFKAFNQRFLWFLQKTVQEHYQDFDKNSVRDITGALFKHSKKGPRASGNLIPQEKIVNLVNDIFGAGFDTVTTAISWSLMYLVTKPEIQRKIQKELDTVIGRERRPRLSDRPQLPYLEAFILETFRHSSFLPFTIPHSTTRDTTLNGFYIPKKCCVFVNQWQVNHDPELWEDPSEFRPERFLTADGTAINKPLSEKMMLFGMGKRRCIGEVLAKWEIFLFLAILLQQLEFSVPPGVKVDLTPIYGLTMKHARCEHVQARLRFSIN

[11] = target: T4, Sphingosine 1-phosphate receptor 4 (Homo sapiens, UniProt O95977); assay: Fluorescence dose response cell-based high throughput screening assay for agonists of the Sphingosine 1-Phosphate Receptor 4 (S1P4). [Related pubchem assays: 1509 (Primary screen.), 1523 (Confirmation screen in triplicates.)]; format: functional
T4 sequence (O95977 whole entry): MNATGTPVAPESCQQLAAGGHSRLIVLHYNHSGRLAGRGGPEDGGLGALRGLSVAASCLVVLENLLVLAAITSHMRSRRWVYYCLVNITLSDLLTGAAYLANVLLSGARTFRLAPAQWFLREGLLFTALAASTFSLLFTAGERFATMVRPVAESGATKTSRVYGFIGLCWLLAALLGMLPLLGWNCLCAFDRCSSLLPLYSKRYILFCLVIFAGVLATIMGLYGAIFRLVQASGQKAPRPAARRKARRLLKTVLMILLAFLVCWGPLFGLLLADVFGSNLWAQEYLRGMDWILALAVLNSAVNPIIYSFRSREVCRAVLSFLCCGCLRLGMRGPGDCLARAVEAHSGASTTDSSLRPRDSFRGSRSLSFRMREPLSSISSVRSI

Cytochrome P450 2C19 = Cytochrome P450 2C19 (Homo sapiens, UniProt P33261); assay: Cytochrome panel assay with activity outcomes. Panel member name: p450-cyp2c19 Compounds with AC50 equal or less than 10 uM are considered active; format: functional; conditions: read-out: AC50
[12] = target: Sphingosine 1-phosphate receptor 1 (Homo sapiens, UniProt P21453); assay: Fluorescence-based counterscreen assay for S1P4 agonists: Cell-based dose response high throughput screening assay to identify agonists of the Sphingosine 1-Phosphate Receptor 1 (S1P1). [Related pubchem assays (depositor defined):AID1509, AID1523, AID1801, AID463107, AID463118, AID463119, AID463122, AID463123, AID463129, AID463225, AID504400, AID504460]; format: functional
[13] = target: Kappa-type opioid receptor (Homo sapiens, UniProt P41145); assay: SAR analysis of small molecule agonists of the kappa opioid receptor via a luminescent beta-arrestin assay - Set 3. [Related pubchem assays (depositor defined):AID1777, AID1785, AID1786, AID1966, AID2133, AID2136, AID2284, AID2500]; format: functional
[14] = target: T5, Voltage-gated N-type calcium channel alpha-1B subunit/Amyloid beta A4 precursor protein-binding family A member 1 (Homo sapiens, UniProt Q00975+Q02410); format: protein assay
SUMO-activating enzyme [15] = target: T6, SUMO-activating enzyme (Homo sapiens, UniProt Q9UBT2); assay: blockers of UBC9-mediated SUMO conjugation – biochemical, AlphaScreen, SUMOylation inhibitor project, confirmation (AID 2018); format: functional
[16] = target: T5, Voltage-gated N-type calcium channel alpha-1B subunit/Amyloid beta A4 precursor protein-binding family A member 1; format: protein assay; remark: listed apart in the source
SUMO-activating enzyme [17] = target: T6, SUMO-activating enzyme; assay: blockers of SAE1/SAE2–UBC9 SUMO transfer – biochemical, HTRF, uHTS, primary screen (AID 2006); format: protein-complex assay

T5 sequence (Q00975 whole entry): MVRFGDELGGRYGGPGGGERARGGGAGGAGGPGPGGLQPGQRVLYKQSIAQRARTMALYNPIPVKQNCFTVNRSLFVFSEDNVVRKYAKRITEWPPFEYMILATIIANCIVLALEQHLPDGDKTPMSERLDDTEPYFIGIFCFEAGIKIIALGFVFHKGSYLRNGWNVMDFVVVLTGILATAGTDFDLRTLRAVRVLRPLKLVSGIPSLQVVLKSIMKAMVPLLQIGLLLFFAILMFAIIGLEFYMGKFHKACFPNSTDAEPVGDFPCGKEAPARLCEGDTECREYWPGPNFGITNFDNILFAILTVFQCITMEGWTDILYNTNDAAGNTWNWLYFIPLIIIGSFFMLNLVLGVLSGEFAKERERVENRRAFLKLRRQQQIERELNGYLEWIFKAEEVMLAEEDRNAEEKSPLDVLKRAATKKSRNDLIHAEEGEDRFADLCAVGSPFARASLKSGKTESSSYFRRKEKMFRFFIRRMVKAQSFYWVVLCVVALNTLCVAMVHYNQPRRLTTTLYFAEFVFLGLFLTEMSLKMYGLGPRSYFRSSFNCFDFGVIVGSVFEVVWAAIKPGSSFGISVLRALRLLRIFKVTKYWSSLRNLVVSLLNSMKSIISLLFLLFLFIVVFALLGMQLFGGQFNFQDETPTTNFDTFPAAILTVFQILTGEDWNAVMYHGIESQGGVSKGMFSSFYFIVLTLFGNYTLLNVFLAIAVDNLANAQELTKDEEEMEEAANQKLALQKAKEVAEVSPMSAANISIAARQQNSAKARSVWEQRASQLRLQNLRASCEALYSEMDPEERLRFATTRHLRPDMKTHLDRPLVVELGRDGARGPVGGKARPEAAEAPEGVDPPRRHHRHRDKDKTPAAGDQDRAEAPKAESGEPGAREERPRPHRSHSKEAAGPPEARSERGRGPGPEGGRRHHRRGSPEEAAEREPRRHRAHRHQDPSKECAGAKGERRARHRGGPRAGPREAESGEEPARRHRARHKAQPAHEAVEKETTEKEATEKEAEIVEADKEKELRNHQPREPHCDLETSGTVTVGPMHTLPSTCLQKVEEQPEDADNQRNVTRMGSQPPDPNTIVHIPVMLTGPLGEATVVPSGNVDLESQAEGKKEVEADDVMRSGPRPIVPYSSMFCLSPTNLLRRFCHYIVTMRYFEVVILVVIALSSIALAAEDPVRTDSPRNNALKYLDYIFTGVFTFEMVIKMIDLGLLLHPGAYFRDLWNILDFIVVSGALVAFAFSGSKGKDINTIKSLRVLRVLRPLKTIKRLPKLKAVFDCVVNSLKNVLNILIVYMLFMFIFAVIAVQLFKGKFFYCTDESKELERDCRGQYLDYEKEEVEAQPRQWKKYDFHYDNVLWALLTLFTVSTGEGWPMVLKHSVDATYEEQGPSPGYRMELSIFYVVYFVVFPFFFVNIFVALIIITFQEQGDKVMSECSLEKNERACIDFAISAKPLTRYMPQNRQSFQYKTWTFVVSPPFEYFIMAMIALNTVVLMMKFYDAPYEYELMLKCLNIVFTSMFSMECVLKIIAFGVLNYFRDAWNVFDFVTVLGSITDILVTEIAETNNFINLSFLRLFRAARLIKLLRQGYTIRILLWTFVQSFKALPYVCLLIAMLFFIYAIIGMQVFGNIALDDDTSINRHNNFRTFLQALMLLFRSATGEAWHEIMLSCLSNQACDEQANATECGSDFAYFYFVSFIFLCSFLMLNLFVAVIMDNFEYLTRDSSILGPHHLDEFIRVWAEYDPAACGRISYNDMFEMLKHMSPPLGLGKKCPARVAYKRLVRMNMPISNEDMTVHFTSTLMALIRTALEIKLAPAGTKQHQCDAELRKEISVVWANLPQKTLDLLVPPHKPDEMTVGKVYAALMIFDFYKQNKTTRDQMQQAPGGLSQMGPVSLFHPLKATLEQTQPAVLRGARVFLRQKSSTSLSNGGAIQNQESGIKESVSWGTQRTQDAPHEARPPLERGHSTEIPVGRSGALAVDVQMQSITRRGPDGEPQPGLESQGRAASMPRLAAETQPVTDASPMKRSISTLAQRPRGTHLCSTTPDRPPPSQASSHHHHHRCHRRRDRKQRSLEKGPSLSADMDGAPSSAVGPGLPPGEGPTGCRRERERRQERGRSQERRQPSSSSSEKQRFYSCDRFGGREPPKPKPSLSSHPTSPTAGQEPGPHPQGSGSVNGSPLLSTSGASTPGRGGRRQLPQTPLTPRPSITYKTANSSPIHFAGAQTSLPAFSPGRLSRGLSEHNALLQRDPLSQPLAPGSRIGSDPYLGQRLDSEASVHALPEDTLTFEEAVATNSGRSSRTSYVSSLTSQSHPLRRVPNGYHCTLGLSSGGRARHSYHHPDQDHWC
T5 sequence (Q02410 whole entry): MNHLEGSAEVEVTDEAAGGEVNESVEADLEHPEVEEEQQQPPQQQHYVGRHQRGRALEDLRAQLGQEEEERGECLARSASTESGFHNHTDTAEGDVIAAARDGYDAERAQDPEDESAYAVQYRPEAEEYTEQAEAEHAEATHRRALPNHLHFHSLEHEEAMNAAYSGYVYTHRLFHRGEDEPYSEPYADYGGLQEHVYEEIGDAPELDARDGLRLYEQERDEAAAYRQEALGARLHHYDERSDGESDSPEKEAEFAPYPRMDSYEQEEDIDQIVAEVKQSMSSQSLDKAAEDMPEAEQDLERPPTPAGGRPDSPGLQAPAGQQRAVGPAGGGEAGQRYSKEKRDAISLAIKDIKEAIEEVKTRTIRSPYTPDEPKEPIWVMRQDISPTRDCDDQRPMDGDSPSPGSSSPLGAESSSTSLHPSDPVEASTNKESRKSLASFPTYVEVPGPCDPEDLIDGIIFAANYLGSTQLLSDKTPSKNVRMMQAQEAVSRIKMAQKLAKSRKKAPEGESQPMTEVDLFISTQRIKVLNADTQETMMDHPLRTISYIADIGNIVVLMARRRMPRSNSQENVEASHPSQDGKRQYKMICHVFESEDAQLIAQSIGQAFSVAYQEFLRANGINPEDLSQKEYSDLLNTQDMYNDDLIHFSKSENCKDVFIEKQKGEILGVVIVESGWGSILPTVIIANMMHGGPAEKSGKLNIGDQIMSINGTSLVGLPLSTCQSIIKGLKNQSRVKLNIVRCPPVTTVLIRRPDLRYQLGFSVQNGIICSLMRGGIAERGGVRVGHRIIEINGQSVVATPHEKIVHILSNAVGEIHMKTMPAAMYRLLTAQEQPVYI
T6 sequence (Q9UBE0 whole entry): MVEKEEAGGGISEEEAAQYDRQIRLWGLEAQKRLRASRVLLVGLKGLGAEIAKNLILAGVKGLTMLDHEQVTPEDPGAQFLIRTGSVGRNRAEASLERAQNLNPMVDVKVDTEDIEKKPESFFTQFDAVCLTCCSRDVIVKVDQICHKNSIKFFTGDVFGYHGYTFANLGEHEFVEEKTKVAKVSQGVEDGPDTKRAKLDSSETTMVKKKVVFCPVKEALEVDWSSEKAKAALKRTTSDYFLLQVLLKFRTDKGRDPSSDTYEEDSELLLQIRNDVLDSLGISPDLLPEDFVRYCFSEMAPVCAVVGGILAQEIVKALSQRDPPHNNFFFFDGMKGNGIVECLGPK
T6 sequence (Q9UBT2 whole entry): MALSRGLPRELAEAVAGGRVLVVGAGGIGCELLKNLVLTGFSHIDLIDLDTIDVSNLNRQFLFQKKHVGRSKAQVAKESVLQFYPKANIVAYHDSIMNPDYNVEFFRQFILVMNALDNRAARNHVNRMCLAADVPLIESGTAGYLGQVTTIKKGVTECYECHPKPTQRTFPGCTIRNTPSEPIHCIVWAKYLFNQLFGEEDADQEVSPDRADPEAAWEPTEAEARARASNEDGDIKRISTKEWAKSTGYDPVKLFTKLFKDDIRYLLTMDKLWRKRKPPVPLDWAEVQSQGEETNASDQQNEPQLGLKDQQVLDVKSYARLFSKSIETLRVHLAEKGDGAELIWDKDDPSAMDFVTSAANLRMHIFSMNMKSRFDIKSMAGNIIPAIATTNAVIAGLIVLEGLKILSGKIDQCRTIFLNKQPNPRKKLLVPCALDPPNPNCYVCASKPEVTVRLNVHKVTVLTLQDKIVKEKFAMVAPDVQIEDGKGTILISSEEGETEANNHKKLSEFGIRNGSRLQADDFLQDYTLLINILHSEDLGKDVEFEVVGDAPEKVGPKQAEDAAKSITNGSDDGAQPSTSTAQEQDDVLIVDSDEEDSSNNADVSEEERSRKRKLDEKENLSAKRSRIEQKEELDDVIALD
Chain of Kappa-type opioid receptor (P41145 whole entry): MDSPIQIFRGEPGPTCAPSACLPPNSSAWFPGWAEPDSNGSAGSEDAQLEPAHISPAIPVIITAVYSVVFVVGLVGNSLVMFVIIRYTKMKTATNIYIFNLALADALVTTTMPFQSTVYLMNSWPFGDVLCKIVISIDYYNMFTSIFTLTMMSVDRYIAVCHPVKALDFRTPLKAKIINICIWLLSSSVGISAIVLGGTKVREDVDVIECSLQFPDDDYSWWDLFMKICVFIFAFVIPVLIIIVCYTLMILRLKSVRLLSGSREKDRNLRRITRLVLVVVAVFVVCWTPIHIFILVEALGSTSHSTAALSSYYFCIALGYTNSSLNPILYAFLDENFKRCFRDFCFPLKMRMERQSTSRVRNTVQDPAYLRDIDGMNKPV
Chain of Cytochrome P450 2C19 (P33261 whole entry): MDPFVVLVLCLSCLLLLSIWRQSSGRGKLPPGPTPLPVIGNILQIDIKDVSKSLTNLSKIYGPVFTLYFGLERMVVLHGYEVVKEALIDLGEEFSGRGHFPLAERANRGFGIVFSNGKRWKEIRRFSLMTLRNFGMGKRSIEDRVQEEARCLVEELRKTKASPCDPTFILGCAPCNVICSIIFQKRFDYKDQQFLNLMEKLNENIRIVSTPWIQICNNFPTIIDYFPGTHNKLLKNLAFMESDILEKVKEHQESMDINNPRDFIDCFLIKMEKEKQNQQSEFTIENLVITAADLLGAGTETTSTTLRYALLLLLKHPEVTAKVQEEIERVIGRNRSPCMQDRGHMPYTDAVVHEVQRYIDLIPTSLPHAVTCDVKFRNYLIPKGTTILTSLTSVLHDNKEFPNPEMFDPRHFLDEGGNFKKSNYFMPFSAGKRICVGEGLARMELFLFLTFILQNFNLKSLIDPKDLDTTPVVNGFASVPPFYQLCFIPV

## Cn1cc(/C=C/c2cc[n+](C)cc2)c2cc(Cl)ccc21
BJ [1]
  EC50: 16.2 µM (active)
INS1
  AC50: 4.33 µM (active)
[2]
  EC50: 1.29 µM (active)
BJ [3]
  EC50: > 150 µM (not active)
[4]
  IC50: 3.42 µM (active)
[5]
  EC50: > 150 µM (inactive)
BJ [6]
  EC50: 9.8 µM (active)
[7]
  EC50: 22.1 µM (inconclusive)

## O=C(c1ccncc1)N1CCN(C(=O)c2ccncc2)CC1
[8]
  IC50: > 79.4 µM (inactive)
[9]
  IC50: > 79.4 µM (inactive)
[10]
  IC50: > 79.4 µM (inactive)

## COC(=O)c1c(-n2c(C)cc(C=O)c2C)sc2c1CCCC2
Cytochrome P450 1A2
  AC50: 5.01 µM (inconclusive)
[11]
  EC50: > 49.8 µM (not active)
Cytochrome P450 2C19
  AC50: 0.794 µM (inconclusive)
[12]
  EC50: > 49.8 µM (inactive)

## CCCCN(Cc1cc2cc(Cl)ccc2[nH]c1=O)C(=O)c1cccs1
[13]
  EC50: > 20 µM (inactive)

## O=C(N/N=C/c1ccc([N+](=O)[O-])o1)c1cn2ccc3ccccc3c2n1
[14]
  IC50: > 56.8 µM (not active)
SUMO-activating enzyme [15]
  IC50: 35.1 µM (active)
[16]
  IC50: > 50 µM (inactive)
SUMO-activating enzyme [17]
  IC50: > 100 µM (inactive)

— ChEMBL document CHEMBL1201862, “PubChem BioAssay data set” (2004)
